The numbers were not newly measured in patent US8329231B2, “Method of preventing photo-aging with ashwagandha and Indian gooseberry” (Nutragenesis, LLC, priority 2008, dated 2012), which cites them from elsewhere.

The conditions of the data set: values from the literature.

Take `O=C1O[C@H]([C@@H](O)CO)C(O)=C1O` [Vitamin C]: the “HORAC (published, literature)” value was 0 units.
